Measured values published in patent publication US20220380347A1, “INHIBITORS OF CYSTEINE PROTEASES AND METHODS OF USE THEREOF” (Pardes Biosciences, Inc., priority 2020, published 2022).
Read-outs that look alike come from different tables or passages of the source.

Tests used:
[1] = molecular target: COVID-19 (nCoV-2019, SARS-CoV2) Mpro (Severe acute respiratory syndrome coronavirus 2, UniProt P0DTD1); test: COVID-19 (nCoV-2019, SARS-CoV2) Mpro enzymatic assay; assay type: biochemical; settings: 25 nM Mpro, 25 μM substrate; read-out: COVID-19 Mpro IC50
HCov OC43 = test: HCoV OC43 cytopathic effect (CPE) assay, CellTiter Glo; assay type: cell-based, human coronavirus (HCov) OC43
Protocol: Example 238: Evaluation of antiviral activity of compounds against human coronavirus (HCov) 229E and OC43 in the cytopathic effect (CPE) assays
Compounds were assayed using standard methods against multiple coronaviral strains, including HCoV 229E and OC43 strains. The antiviral activity of compounds was calculated based on the protection of the virus-induced CPE at each concentration normalized by the virus control.
Reference compound used was remdesivir; detection reagent: CellTiter Glo.) The CPE were measured by CellTiter Glo following the manufacturer's manual. The antiviral activity of compounds was calculated based on the protection of the virus-induced CPE at each concentration normalized by the virus control.
Cell viability was measured with CellTiter Glo.

229E Mpro = 229E Mpro (Human coronavirus 229E, UniProt P0C6X1); test: 229E Mpro enzymatic assay (standard methods, SARS-CoV2 Mpro assay given as exemplary); assay type: biochemical, human coronavirus (HCov) 229E
Protocol: Compounds were assayed using standard methods to assess compound activity and IC50. As an exemplary for assessment of the SARS-COV2 Mpro, the C-His6-tagged Mpro (NC_045512) was cloned, expressed in E. coli and purified. The assay buffer contained 20 mM of Tris-HCl (pH 7.3), 100 mM of NaCl, 1 mM of EDTA, 5 mM of TCEP and 0.1% BSA. The final concentrations of the Mpro protein and substrate were 25 nM and 25 μM, respectively, in the Mpro enzymatic assay. The Km of the Mpro substrate for the protease was 13.5 μM.
The compounds were added to an assay plate. […] For no inhibition control (ZPE, zero percent effect), no compound was added.
IC50 values of compounds were calculated with the GraphPad Prism software using the nonlinear regression model of log(inhibitor) vs. response—Variable slope (four parameters). The inhibition activity was calculated using the formula below, IC50 values is calculated using the Inhibition % data.
Inhibition %=[(Sample-Average ZPE)/(Average HPE-Average ZPE)]*100%^#

[2] = read-out: OC43 IC50 (uM) MEDIAN, median
[3] = Betacoronavirus 1, OC43, read-out: OC43 IC50 (uM) MEDIAN, median

Chain of 229E Mpro (P0C6X1 2966-3267): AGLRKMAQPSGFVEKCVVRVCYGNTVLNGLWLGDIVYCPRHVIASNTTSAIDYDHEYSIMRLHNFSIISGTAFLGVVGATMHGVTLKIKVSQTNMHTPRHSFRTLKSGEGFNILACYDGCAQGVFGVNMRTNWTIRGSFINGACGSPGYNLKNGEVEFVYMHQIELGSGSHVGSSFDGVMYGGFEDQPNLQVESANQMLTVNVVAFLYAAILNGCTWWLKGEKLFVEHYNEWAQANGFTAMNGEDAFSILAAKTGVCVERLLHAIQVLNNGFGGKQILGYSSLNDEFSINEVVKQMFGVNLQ

SMILES	IC50 [1] [nM]	IC50 (HCov OC43; [2]) [µM]	EC50 (229E Mpro; 229E Mpro EC50) [nM]	EC50 (229E Mpro; read-out: 229E Mpro EC50) [nM]	IC50 (HCov OC43; [3]) [µM]
CC(C)(C)c1ccc(N(C(=O)C2CCC(F)(F)CN2C#N)C(C(=O)NC2CCCCC2)c2cccnc2)cc1 (single isomer, unassigned) [885 Isomer 1, N-(4-(tert-butyl)phenyl)-1-cyano-N-(2-(cyclohexylamino)-2-oxo-1-(pyridin-3-yl)ethyl)-5,5-difluoropiperidine-2-carboxamide]	> 30000	> 30	10000 to 30000	–	–
CC(C)(C)c1ccc(N(C(=O)C2CCC(F)(F)CN2C#N)C(C(=O)NC2CCCCC2)c2cccnc2)cc1 (single isomer, unassigned) [885 Isomer 2, N-(4-(tert-butyl)phenyl)-1-cyano-N-(2-(cyclohexylamino)-2-oxo-1-(pyridin-3-yl)ethyl)-5,5-difluoropiperidine-2-carboxamide]	< 2000	2 to 10	< 2000	–	–
CC1(O)CN(C(=O)C(c2cccnc2)N(C(=O)[C@H]2CCCN2C#N)c2ccc(C(C)(C)C)cc2)C1 (single isomer, unassigned) [955 Isomer 1]	2000 to 10000	2 to 10	2000 to 10000	–	–
CC1(O)CN(C(=O)C(c2cccnc2)N(C(=O)[C@H]2CCCN2C#N)c2ccc(C(C)(C)C)cc2)C1 (single isomer, unassigned) [955 Isomer 2]	10000 to 30000	10 to 30	–	2000 to 10000	–
CC1(C)CN(C#N)[C@@H](C(=O)N(c2ccc(S(F)(F)(F)(F)F)cc2)C(C(=O)NC2CCC(F)(F)CC2)c2cncc(F)c2)CO1 (single isomer, unassigned) [1086b Isomer 1]	< 2000	–	< 2000	–	< 2
CC1(C)CN(C#N)[C@@H](C(=O)N(c2ccc(S(F)(F)(F)(F)F)cc2)C(C(=O)NC2CCC(F)(F)CC2)c2cncc(F)c2)CO1 (single isomer, unassigned) [1086b Isomer 2]	2000 to 10000	2 to 10	–	< 2000	–
N#CN1CC(F)(F)C[C@@H]1C(=O)N(c1ccc(S(F)(F)(F)(F)F)cc1)C(C(=O)NC1CCC(F)(F)CC1)c1cccnc1 (single isomer, unassigned) [1087 Isomer 1]	< 2000	< 2	< 2000	–	–
N#CN1CC(F)(F)C[C@@H]1C(=O)N(c1ccc(S(F)(F)(F)(F)F)cc1)C(C(=O)NC1CCC(F)(F)CC1)c1cccnc1 (single isomer, unassigned) [1087 Isomer 2]	2000 to 10000	> 30	–	< 2000	–
CC1(C)CCN(C#N)[C@H]1C(=O)N(c1ccc(S(F)(F)(F)(F)F)cc1)C(C(=O)NC1CCC(F)(F)CC1)c1cncc(F)c1 (single isomer, unassigned) [1094 Isomer 1]	< 2000	< 2	< 2000	–	–
CC1(C)CCN(C#N)[C@H]1C(=O)N(c1ccc(S(F)(F)(F)(F)F)cc1)C(C(=O)NC1CCC(F)(F)CC1)c1cncc(F)c1 (single isomer, unassigned) [1094 Isomer 2]	10000 to 30000	10 to 30	2000 to 10000	–	–
N#CN1C[C@@H]2C[C@@H]2[C@@H]1C(=O)N(c1ccc(S(F)(F)(F)(F)F)cc1)C(C(=O)NC1CCC(F)(F)CC1)c1cncc(F)c1 (single isomer, unassigned) [1096 Isomer 1]	2000 to 10000	–	< 2000	–	2 to 10
N#CN1C[C@@H]2C[C@@H]2[C@@H]1C(=O)N(c1ccc(S(F)(F)(F)(F)F)cc1)C(C(=O)NC1CCC(F)(F)CC1)c1cncc(F)c1 (single isomer, unassigned) [1096 Isomer 2]	< 2000	< 2	–	< 2000	–
N#CN1C[C@@H]2CC[C@@H]2[C@@H]1C(=O)N(c1ccc(S(F)(F)(F)(F)F)cc1)C(C(=O)NC1CCC(F)(F)CC1)c1cncc(F)c1 (single isomer, unassigned) [1097 Isomer 1]	< 2000	–	< 2000	–	< 2
N#CN1C[C@@H]2CC[C@@H]2[C@@H]1C(=O)N(c1ccc(S(F)(F)(F)(F)F)cc1)C(C(=O)NC1CCC(F)(F)CC1)c1cncc(F)c1 (single isomer, unassigned) [1097 Isomer 2]	10000 to 30000	2 to 10	2000 to 10000	–	–
N#C[C@H]1C[C@H](C(=O)N(c2ccc(S(F)(F)(F)(F)F)cc2)C(C(=O)NC2CCC(F)(F)CC2)c2cncc(F)c2)N(C#N)C1 (single isomer, unassigned) [1100 Isomer 1]	< 2000	–	< 2000	–	< 2
